From publication PMC6943619, “Synthesis and Pharmacological Evaluation of Hybrids Targeting Opioid and Neurokinin Receptors” (Molecules, 2019)
Where a SMILES comes first, the peptide text is derived from it. Bridges are numbered along the chain shown (N, C = ends). [ ]: non-standard residue; d: D form. Nle = CCCC[C@H](N)C(=O)O

Key:
mice [1] = test: Writhing test (acetic acid, acute pain model); format: in vivo; settings: 5 mg/kg i.p., single injection 15 min before i.p. acetic acid (0.5%, 10 mL/kg), writhes counted 15 min, saline baseline about 35, average, n = 10
mice [2] = test: Tolerance development, writhing test after repeated injections; format: in vivo; settings: 5 mg/kg i.p. once daily for seven days, writhing test on Day 7, n = 10
Protocol: To examine whether mice developed tolerance to hybrids 2 and 4, these analogs and analog 1 for comparison were injected once daily (5 mg/kg) for seven consecutive days. After repeated administration, the antinociceptive effect was determined on Day 7, performing the writhing test as above.
Figure 4 A comparison of the antinociceptive effect of single (Day 1) and repeated (Day 7) i.p. injections of opioid analog 1 and hybrids 2 and 4 at the dose of 5 mg/kg in the writhing test in mice. The data represent mean ± SEM, n = 10. Statistical significance was assessed using one-way ANOVA and a post hoc multiple comparison by the Student–Newman–Keuls test. *** p < 0.001, as compared to control.
Peptides were administered at the highest dose (5 mg/kg) used before in the writhing test. In the experiment, four new groups of animals (10 mice per group, housed in one cage) underwent repeated injections (i.p.) of saline or the tested compounds (Days 1–7). On Day 7, following saline or peptide administration, the writhing test was performed, as described above. The antinociceptive activity of a compound was compared to the activity obtained after a single injection of this compound in the corresponding dose (5 mg/kg).

[3] = molecular target: T1, human opioid receptor KOR (Homo sapiens, UniProt P41145); test: Radioligand binding assay, displacement of [3H]U-69593; settings: displacement of [3H]U-69593 from membranes of CHO cells transfected with human KOR, 50 mM Tris/HCl pH 7.4, 0.5% BSA, peptidase inhibitors, 2 h at 25 °C, mean ± SEM, n ≥ 3
T1 construct: purchased PerkinElmer (Krakow, Poland); host or cells: CHO cell membranes
Protocol: A radioligand binding assay was performed to determine the opioid receptor (OR) binding affinities of the novel analogs using commercially available membranes of Chinese hamster ovary cells (CHO) transfected with human recombinant ORs. [^3H]DAMGO, [^3H]deltorphin-2, and [^3H]U-69593 were used as the radioligands for MOR, DOR, and KOR, respectively. Tyr-[D-Lys-Phe-Phe-Asp]NH2 (1) was used as a reference opioid compound. […] None of them acquired significant DOR affinity.
(§1) To determine the affinity of peptide analogs to respective receptors, competition binding experiments were performed, as described in detail elsewhere.
Commercial membranes of CHO cells stably expressing either human ORs or NK1 receptor were used. [^3H]DAMGO, [^3H]deltorphin-2, and [^3H]U-69593 were employed as the competing radioligands for MOR, DOR, and KOR, respectively, while [^3H][Sar^9, Met(O2)^11]SP was utilized for the NK1 receptor. Membranes were incubated in a 0.5 mL volume of 50 mM Tris/HCl (pH = 7.4), 0.5% bovine serum albumin (BSA), with a number of peptidase inhibitors (bacitracin, bestatin, captopril) and various concentrations of radioligands for 2 h at 25 °C. Nonspecific binding was assessed in the presence of […] naloxone for ORs or SP for NK1 receptor.
The pharmacological terminology adopted in this paper is consistent with International Union of Basic and Clinical Pharmacology (IUPHAR) recommendations. Concentration–response curves were analyzed by nonlinear regression using Graph Pad Prism 6.0 (La Jolla, CA, USA). […]. […] Concentration–response curves were fitted with the four-parameter logistic nonlinear regression model (1) Effect=baseline+Emax−baseline/1+10^logEC50−X·n where X is the agonist concentration and n is the Hill coefficient. Ligand efficacy was expressed as intrinsic activity (α) calculated as a ratio of the peptide Emax to the Emax of the standard agonist (Supplementary Materials, Figure S7). […]. All statistical analyses were performed using Graph Pad Prism 6.0 (La Jolla, CA, USA). Differences between groups were analyzed with one-way ANOVA and a post hoc multiple comparison by the Student–Newman–Keuls test. A probability level of 0.05 or smaller was used to indicate statistical significance.

human NK1 = human NK1 (Homo sapiens, UniProt P25103); test: Radioligand binding assay, displacement of [3H][Sar9, Met(O2)11]SP; design: purchased PerkinElmer (Krakow, Poland); host or cells: CHO cell membranes; settings: displacement of [3H][Sar9, Met(O2)11]SP from membranes of CHO cells transfected with human NK1 receptor; 50 mM Tris/HCl pH 7.4, 0.5% BSA, peptidase inhibitors, 2 h at 25 °C; mean ± SEM, n ≥ 3; SEM
Protocol: The binding assay was also used to examine the affinity of the synthesized hybrids for NK1 in commercial membranes of CHO cells stably expressing human NK1.
as §1
Commercial membranes of CHO cells stably expressing either human ORs or NK1 receptor were used. […] Membranes were incubated in a 0.5 mL volume of 50 mM Tris/HCl (pH = 7.4), 0.5% bovine serum albumin (BSA), with a number of peptidase inhibitors (bacitracin, bestatin, captopril) and various concentrations of radioligands for 2 h at 25 °C.
The pharmacological terminology adopted in this paper is consistent with International Union of Basic and Clinical Pharmacology (IUPHAR) recommendations. Concentration–response curves were analyzed by nonlinear regression using Graph Pad Prism 6.0 (La Jolla, CA, USA). […] Concentration–response curves were fitted with the four-parameter logistic nonlinear regression model (1) Effect=baseline+Emax−baseline/1+10^logEC50−X·n where X is the agonist concentration and n is the Hill coefficient. Ligand efficacy was expressed as intrinsic activity (α) calculated as a ratio of the peptide Emax to the Emax of the standard agonist (Supplementary Materials, Figure S7). […] All statistical analyses were performed using Graph Pad Prism 6.0 (La Jolla, CA, USA). Differences between groups were analyzed with one-way ANOVA and a post hoc multiple comparison by the Student–Newman–Keuls test. A probability level of 0.05 or smaller was used to indicate statistical significance.

human MOR = molecular target: T2, human MOR (Homo sapiens, UniProt P35372); test: Calcium mobilization functional assay, agonist mode; format: cell-based; settings: for MOR α ± SEM: efficacy (intrinsic activity), Emax relative to EM-2, mean ± SEM
T2 construct: expressed in transfected cells; host or cells: CHO cells (University of Ferrara), co-expressing Gαqi5

[4] = CHO cells co-expressing human MOR and Gαqi5, n = 5, SEM

T2 sequence (P35372 whole entry): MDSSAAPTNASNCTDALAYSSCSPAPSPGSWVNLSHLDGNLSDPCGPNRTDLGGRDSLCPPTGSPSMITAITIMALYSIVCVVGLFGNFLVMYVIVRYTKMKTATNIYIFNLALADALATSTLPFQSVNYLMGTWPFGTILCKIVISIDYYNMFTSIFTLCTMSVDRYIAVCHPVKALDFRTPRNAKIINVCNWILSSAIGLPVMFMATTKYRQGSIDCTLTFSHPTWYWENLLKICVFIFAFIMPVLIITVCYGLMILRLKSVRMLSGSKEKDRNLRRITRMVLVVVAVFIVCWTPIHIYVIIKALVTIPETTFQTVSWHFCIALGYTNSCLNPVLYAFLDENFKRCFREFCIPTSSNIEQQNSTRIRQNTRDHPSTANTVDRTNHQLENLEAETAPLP
Chain of human NK1 (P25103 whole entry): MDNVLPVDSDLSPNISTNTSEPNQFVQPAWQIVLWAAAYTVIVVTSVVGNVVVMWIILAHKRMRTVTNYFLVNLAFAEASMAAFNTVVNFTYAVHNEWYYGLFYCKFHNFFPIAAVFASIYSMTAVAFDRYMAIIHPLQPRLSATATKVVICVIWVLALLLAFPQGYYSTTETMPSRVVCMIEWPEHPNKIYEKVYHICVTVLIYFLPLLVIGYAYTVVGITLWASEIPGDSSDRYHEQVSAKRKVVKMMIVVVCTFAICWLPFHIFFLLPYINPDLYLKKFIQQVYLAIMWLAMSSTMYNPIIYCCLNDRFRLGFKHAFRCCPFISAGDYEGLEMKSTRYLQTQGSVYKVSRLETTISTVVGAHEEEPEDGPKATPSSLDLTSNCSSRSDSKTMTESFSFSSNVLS
T1 sequence (P41145 whole entry): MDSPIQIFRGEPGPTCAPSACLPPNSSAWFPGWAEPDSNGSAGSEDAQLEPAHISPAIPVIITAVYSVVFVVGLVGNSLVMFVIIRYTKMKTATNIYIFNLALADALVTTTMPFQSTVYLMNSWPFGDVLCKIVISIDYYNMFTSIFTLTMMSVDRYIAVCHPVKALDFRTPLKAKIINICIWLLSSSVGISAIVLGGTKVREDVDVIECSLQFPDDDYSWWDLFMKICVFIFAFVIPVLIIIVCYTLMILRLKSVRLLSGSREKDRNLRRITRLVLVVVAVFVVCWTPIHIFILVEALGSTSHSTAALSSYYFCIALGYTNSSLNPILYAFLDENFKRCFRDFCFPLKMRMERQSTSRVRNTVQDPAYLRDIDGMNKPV

| Compound | number of writhes (mice [1]) | tolerance development (analgesic activity on Day 7 versus Day 1) (mice [2]) | Ki [3] [nM] | Ki (human NK1) [nM] | EC50 (human MOR; CHO cells co-expressing human MOR and Gαqi5, Fluo-4 AM calcium signal, n = 5, read-out: MOR pEC50 (CL95%) (converted)) [nM] | lower potency at MOR as compared with 1 (human MOR; calcium mobilization, from pEC50 values) [fold] | MOR α ± SEM (human MOR; CHO cells co-expressing human MOR and Gαqi5, n = 5) | MOR α ± SEM (human MOR; [4]) |
| --- | --- | --- | --- | --- | --- | --- | --- | --- |
| CCCC[C@H](NC(=O)[C@H](CC(C)C)NC(=O)[C@@H](Cc1c[nH]c2ccccc12)NC(=O)[C@H](Cc1ccccc1)NC(=O)[C@@H](Cc1c[nH]c2ccccc12)NC(=O)[C@H](CC(N)=O)NC(=O)[C@@H]1CC(=O)NCCCC[C@@H](NC(=O)[C@@H](N)Cc2ccc(O)cc2)C(=O)N[C@@H](Cc2ccccc2)C(=O)N[C@@H](Cc2ccccc2)C(=O)N1)C(N)=O [compound 2, Tyr-[D-Lys-Phe-Phe-Asp]-Asn-D-Trp-Phe-D-Trp-Leu-Nle-NH2] (H-Y[dK]FFDN[dW]F[dW]L[Nle]-NH2; lactam 2-5) | 12.4 | did not cause tolerance development | 7.46 ± 0.6 | 10.5 ± 0.6 | 31.6 | 30 | 0.66 | 0.66 ± 0.04 |
| CSCC[C@H](NC(=O)[C@H](CC(C)C)NC(=O)CNC(=O)[C@H](Cc1ccccc1)NC(=O)[C@H](Cc1ccccc1)NC(=O)[C@H](CCC(N)=O)NC(=O)[C@@H]1CC(=O)NCCCC[C@@H](NC(=O)[C@@H](N)Cc2ccc(O)cc2)C(=O)N[C@@H](Cc2ccccc2)C(=O)N[C@@H](Cc2ccccc2)C(=O)N1)C(N)=O [compound 4, Tyr-[D-Lys-Phe-Phe-Asp]-Gln-Phe-Phe-Gly-Leu-Met-NH2] (H-Y[dK]FFDQFFGLM-NH2; lactam 2-5) | 4.5 | did not cause tolerance development | 10.8 ± 0.85 | 15.6 ± 1.23 | – | – | – | 0.90 ± 0.04 |
